Measured values taken from the NIST ThermoML archive (doi:10.1021/je900550v).

Settings: 101.33 kPa, Liquid; for speed of sound: Pulse-echo method; for mass density: Vibrating tube method

CC(C)C(=O)[O-].C[NH2+]CCO [2-hydroxy-N-methylethanaminium isobutyrate]
Settings	mass density [kg/m3]	speed of sound [m/s]	viscosity [mPa·s]
278.15 K	1056.12	1670.2	–
278.4 K	1055.96	1669.4	–
278.65 K	1055.8	1668.6	–
278.9 K	1055.64	1667.8	–
279.15 K	1055.48	1667	–
279.4 K	1055.32	1666.2	–
279.65 K	1055.16	1665.4	–
279.9 K	1055	1664.7	–
280.15 K	1054.85	1663.9	–
280.4 K	1054.68	1663.1	–
280.65 K	1054.52	1662.3	–
280.9 K	1054.36	1661.5	–
281.15 K	1054.2	1660.8	–
281.4 K	1054.04	1660	–
281.65 K	1053.88	1659.2	–
281.9 K	1053.72	1658.5	–
282.15 K	1053.56	1657.7	–
282.4 K	1053.4	1657	–
282.65 K	1053.24	1656.2	–
282.9 K	1053.08	1655.4	–
283.15 K	1052.92	1654.7	–
283.4 K	1052.76	1653.9	–
283.65 K	1052.6	1653.2	–
283.9 K	1052.43	1652.4	–
284.15 K	1052.27	1651.7	–
284.4 K	1052.11	1650.9	–
284.65 K	1051.95	1650.2	–
284.9 K	1051.79	1649.4	–
285.15 K	1051.63	1648.7	–
285.4 K	1051.47	1647.9	–
285.65 K	1051.31	1647.2	–
285.9 K	1051.14	1646.4	–
286.15 K	1050.98	1645.9	–
286.4 K	1050.82	1645.2	–
286.65 K	1050.66	1644.4	–
286.9 K	1050.49	1643.7	–
287.15 K	1050.33	1642.9	–
287.4 K	1050.17	1642.2	–
287.65 K	1050.01	1641.5	–
287.9 K	1049.85	1640.7	–
288.15 K	1049.68	1640	301.35
288.4 K	1049.52	1639.3	–
288.65 K	1049.36	1638.5	–
288.9 K	1049.19	1637.8	–
289.15 K	1049.03	1637.1	–
289.4 K	1048.87	1636.3	–
289.65 K	1048.72	1635.6	–
289.9 K	1048.56	1634.9	–
290.15 K	1048.41	1634.2	–
290.4 K	1048.25	1633.4	–
290.65 K	1048.09	1632.7	–
290.9 K	1047.94	1632	–
291.15 K	1047.79	1631.2	–
291.4 K	1047.63	1630.5	–
291.65 K	1047.47	1629.8	–
291.9 K	1047.31	1629.1	–
292.15 K	1047.16	1628.4	–
292.4 K	1047	1627.7	–
292.65 K	1046.84	1626.9	–
292.9 K	1046.68	1626.2	–
293.15 K	1046.53	1625.5	220.69
293.4 K	1046.37	1624.8	–
293.65 K	1046.21	1624.1	–
293.9 K	1046.06	1623.4	–
294.15 K	1045.9	1622.7	–
294.4 K	1045.74	1622	–
294.65 K	1045.59	1621.2	–
294.9 K	1045.43	1620.5	–
295.15 K	1045.27	1619.8	–
295.4 K	1045.11	1619.1	–
295.65 K	1044.96	1618.4	–
295.9 K	1044.8	1617.7	–
296.15 K	1044.63	1617	–
296.4 K	1044.48	1616.3	–
296.65 K	1044.32	1615.6	–
296.9 K	1044.17	1614.9	–
297.15 K	1044.01	1614.2	–
297.4 K	1043.84	1613.4	–
297.65 K	1043.68	1612.7	–
297.9 K	1043.52	1612	–
298.15 K	1043.37	1611.3	163.08
298.4 K	1043.2	1610.6	–
298.65 K	1043.05	1609.9	–
298.9 K	1042.89	1609.2	–
299.15 K	1042.73	1608.5	–
299.4 K	1042.57	1607.8	–
299.65 K	1042.41	1607.1	–
299.9 K	1042.25	1606.3	–
300.15 K	1042.09	1605.6	–
300.4 K	1041.93	1604.9	–
300.65 K	1041.77	1604.2	–
300.9 K	1041.61	1603.5	–
301.15 K	1041.45	1602.8	–
301.4 K	1041.29	1602.1	–
301.65 K	1041.13	1601.4	–
301.9 K	1040.96	1600.7	–
302.15 K	1040.81	1600	–
302.4 K	1040.64	1599.3	–
302.65 K	1040.49	1598.6	–
302.9 K	1040.32	1597.8	–
303.15 K	1040.17	1597.2	124.67
303.4 K	1040	1596.4	–
303.65 K	1039.84	1595.7	–
303.9 K	1039.68	1595	–
304.15 K	1039.52	1594.3	–
304.4 K	1039.36	1593.6	–
304.65 K	1039.19	1592.9	–
304.91 K	1039.03	1592.2	–
305.15 K	1038.87	1591.5	–
305.4 K	1038.71	1590.8	–
305.65 K	1038.55	1590.1	–
305.9 K	1038.39	1589.4	–
306.15 K	1038.23	1588.7	–
306.4 K	1038.06	1588	–
306.65 K	1037.9	1587.3	–
306.9 K	1037.74	1586.6	–
307.15 K	1037.58	1585.9	–
307.4 K	1037.41	1585.2	–
307.65 K	1037.25	1584.5	–
307.9 K	1037.09	1583.8	–
308.15 K	–	–	98.28
